Measured values: patent US20120083464A1, “NEUROPROTECTIVE PROPERTIES OF 5'-METHYLTHIOADENOSINE” (priority 2009, published 2012)
Entries after “also recorded” stand apart in the source; their conditions may differ.

Key:
[1] = test system: dopaminergic neurons (TH+ cells) in the substantia nigra; assay: MPTP mice model of Parkinson disease, TH immunohistochemistry; type: in vivo, C57B1 mice
Method: Male C57B1 mice, with a body ranging in weight from 23 to 31 g were used in this study. MPTP (Sigma) dissolved in 0.9% NaCl was injected intraperitonealy at a dose of 30 mg/kg for 5 days. MTA was dissolved in purified water with 2% of DMSO at a final concentration of 6 mg/ml and was injected intraperitonealy at a dose of […] or 192 μmol/Kg. The first day of the experiment MTA was injected 24 hours before the MPTP injection and during the following four days administration of MTA was 1 hour before the administration of MPTP. Mice were divided in four groups: (1) MPTP (n=6); (2) MPTP plus 96 μmol/Kg MTA (n=6); (3) MPTP plus 192 μmol/Kg MTA (n=9) and (4) Control group (n=2).
At the end of the experiment, animals were anesthetized with an overdose of 10% chloral hydrate in distilled water and then transcardially perfused with saline Ringer's solution followed by 100 ml of a cold fixative solution containing 4% paraformaldehyde and 0.4% glutaraldehyde in 0.125 M PB, pH 7.4. After perfusion, the skull was opened and the brain removed was post-fixed overnight at 4° C. in the same fixative solution and next stored in a cryoprotective solution containing 20% glycerine and 2% dimethylsulphoxide in 0.125 M PB, pH 7.4. Frozen coronal microtome sections (50 μm-thick) were obtained and collected in 0.125 M PB, pH 7.4, in 6 series of adjacent sections. Sections were stored at −80° C. until further processing.
With a random start, every third sections through the entire SN were sampled. The sections were processed free-floating. Endogenous peroxidase activity was removed by incubating the sections in methanol with 1.25% H2O2 for 40 min. […] Histological quantification was done using the CAST system from Olympus using the BX50 microscope and following the methods described by Oorschot (J Comp Neurol 366:580-599, 1996). […] Neurons were counted using the optic dissector every 3 sections at 150 μm distance and at ×400. […]

RN22 cells = assay: Hydrogen peroxide stress in RN22 cells, MTT cell viability; type: cell-based, rat; details: hydrogen peroxide 100 μM, twenty-four hours; MTA 25 μM-3 mM
Method: RN22 cells were maintained at 37° C. in DMEM medium supplemented with 10% of fetal bovine serum and penicillin/streptomycine. The assays against stress with copper sulphate were conducted using 24-well plates in DMEM medium without serum. After allowing cell adherence for three days, NGF (100 ng/ml) or MTA was added to different concentrations half an hour before the copper sulphate (150 μM). After twenty-four hours, cell viability was quantified by MTT assay and ROS production was quantified by fluorescence. Assays against stress with hydrogen peroxide were conducted in the same way as the foregoing, using 100 μM hydrogen peroxide as a stress-producing agent.
We determined the quantity of MTT (Sigma) that is reduced to insoluble formazan. After separating the medium, the water-insoluble formazan is solubilised in DMSO and the dissolved material is measured in a spectrophotometer at 570 nm.

[2] = test system: oligodendrocytes derived from the optic nerve; assay: Oligodendrocyte excitotoxicity with AMPA; type: cell-based, Sprague Dawley rats; details: MTA 100-300 μM
Method: Primary cultures of oligodendrocytes derived from optic nerves of 12-d-old Sprague Dawley rats were obtained as described previously (Barres et al., 1992). Cells were seeded into 24-well plates bearing 12-mm-diameter coverslips coated with poly-D-lysine (10 μg/ml) at a density of 5×10^3 cells per well. Cells were maintained at 37° C. and 5% CO2 in a chemically defined medium (Barres et al., 1992, Cell 70:31-46). After 2-4 d in vitro, cultures were composed of at least 98% O4/galactocerebroside-positive (O4/Ga1C_) cells; the majority of the remaining cells were stained with antibodies to glial fibrillary acidic protein (GFAP). No A2B5+ or microglial cells were detected in these cultures (Alberdi et al., 2002, Neurobiol Dis 9:234-243).
Cell toxicity and viability assays were performed as described previously (Sánchez-Gómez and Matute, 1999, Neurobiol Dis 6:475-485). For evaluating the MTA toxicity, cells at 2-4 d in culture were exposed for 24 hours to that drug and cell viability assessed using calcein-AM (Invitrogen). […] Twenty-four hours after drug application, cell viability was assessed using calcein-AM (Invitrogen). The total number of surviving cells on each coverslip emitting calcein fluorescence was counted, and results were expressed as percentage of cell death versus control. Results were expressed as the mean±SEM of at least three independent experiments performed in duplicate. […]

Q: Which results are given for `CSC[C@H]1O[C@@H](n2cnc3c(N)ncnc32)[C@H](O)[C@@H]1O` [MTA, 5′-methylthioadenosine]?
A: reduction in the number of TH (dopaminergic) neurons compared to controls ([1]; MPTP 30 mg/kg for 5 days plus MTA 96 μM/day (so in the source)): 10%; higher number of dopaminergic neurons than MPTP treated animals ([1]; MPTP plus MTA 96 μM/day (so in the source)): 30%; number of TH neurons versus MPTP animals ([1]; MPTP plus MTA (96 μM as printed)): significantly higher number of TH neurons; cell viability (MTT) under hydrogen peroxide stress (RN22 cells): capable of maintaining cell viability; protection of oligodendrocytes from excitotoxic insult ([2]; AMPA 10 μM): robust protective activity; also recorded: protects; protection of oligodendrocytes from excitotoxic insult ([2]; AMPA 100 μM (necrotic death)): no protection; also recorded: does not protect
